pIC50: −log10 of the molar value.
Assays:
[1] = biological target: T1, Human bradykinin B2 receptor aequorin cell line (Homo sapiens, UniProt P30411); assay: Bradykinin B2 receptor antagonistic activity by intracellular calcium assay (Fluo-4, BK agonist); type: cell-based; details: for pIC50: human B2 receptor cells, Fluo-4 calcium assay, agonist BK at EC80, with washing step
T1 sequence (P30411 1-391): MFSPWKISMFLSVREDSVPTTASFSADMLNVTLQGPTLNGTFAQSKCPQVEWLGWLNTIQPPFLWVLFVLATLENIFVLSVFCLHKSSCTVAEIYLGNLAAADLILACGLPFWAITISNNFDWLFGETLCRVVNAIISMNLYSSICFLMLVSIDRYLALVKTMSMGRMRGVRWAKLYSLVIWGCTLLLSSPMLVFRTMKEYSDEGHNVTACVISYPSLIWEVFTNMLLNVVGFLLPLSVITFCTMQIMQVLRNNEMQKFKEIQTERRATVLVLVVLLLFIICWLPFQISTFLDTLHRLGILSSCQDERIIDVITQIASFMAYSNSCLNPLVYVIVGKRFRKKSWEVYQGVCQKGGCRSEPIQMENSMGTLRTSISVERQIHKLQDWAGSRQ
Method: (§1) Human bradykinin B1 receptor cell line (Product #ES-091-C), Human bradykinin B2 receptor aequorin cell line (Product #ES-090-A), Fluo-4 calcium assay kits (Molecular Probes).
(§2) Agonist for B1 receptor cell line is Lys-[Des-Arg9]-Bradykinin (LDBK) and antagonist is R715. Agonist for B2 receptor cell line is BK (bradykinin) and antagonist is HOE140. All the agonist and antagonist were procured from TOCRIS. Dye loading solution was prepared by adding 10 mL of assay buffer and 100 μL of the probenecid stock solution (provided in the Kit) to one bottle of component A (dye concentrate). 0.4% Triton X-100 (4X) was used as positive control (PC) and was prepared by adding 38 uL of Triton X-100 in 10 mL of working assay buffer (WAB).
(§3) Human bradykinin B1 receptor cell line (B1) and human bradykinin B2 receptor aequorin cell line (B2) was procured from PerkinElmer, Waltham, Mass. B1 cells were cultured and maintained in Ham's F-12 medium (Gibco) supplemented with 10% fetal bovine serum (FBS) (Gibco) and 0.4 mg/ml Geneticin (Gibco) in a humidified incubator at 37° C. with 5% CO2. B2 cells were cultured and maintained in Ham's F-12 medium (Gibco) supplemented with 10% fetal bovine serum (FBS) (Gibco), 0.4 mg/ml Geneticin (Gibco) and 5 μg/ml Puromycin (Gibco) in a humidified incubator at 37° C. with 5% CO2. All the test compounds were weighed and dissolved in DMSO and a stock of 20 mM was prepared and stored at −20° C.
(§4) Bradykinin receptor antagonist screening assay was performed using Fluo-4 calcium assay kits by following the manufacturer's instruction. Briefly, approximately 30,000 of human either B1 or B2 cells were seeded in each well of a 96 black well plate. After 24 h, the growth media was removed and washed with 200 μL of assay buffer provided in the Fluo-4 calcium assay kits. Thereafter, 100 uL of Flu-4 dye-loading solution was added in each well of 96 well plate and incubated it at 37° C. for about 30 min. After about 30 minutes of incubation at room temperature, dye loading solution was removed and washed with 200 μL of WAB (mentioned in materials). Post washing, into 100 uL of WAB, 50 uL of WAB or 50 uL of cell line receptor specific antagonist (mentioned in materials) or test compound dilutions were added in 96 well plate. The plates were incubated for 20 min at room temperature with shaking at 300 rpm. At the end of the incubation time, the plates were inserted into the CLARIOstar microplate reader and % gain was adjusted. Thereafter, the plates were read at Ex/Em=494/516 nm for baseline RFU (Range 1). Thereafter, the microplate reader was paused at 11th cycle and 50 uL of 4× (EC80) cell line specific agonist (mentioned in materials) or PC dilution prepared in WAB was added and manually the plates were shaked for 5 sec. Again, the plates were read at Ex/Em=494/516 nm (Range 2).
(§5) Delta RFU was calculated using the formula:
(§6) Delta RFU=Range 2 avg RFU−Range 1 avg RFU
(§7) Based on the data the IC50 or Percent Inhibition of all the compounds was calculated.
(§8) Note: The above assay was performed using plate (flying) mode function of CLARIOstar.

[2] = biological target: T2, Human bradykinin B1 receptor cell line (Homo sapiens, UniProt P46663); assay: Bradykinin B1 receptor antagonistic activity by intracellular calcium assay (Fluo-4, LDBK agonist); type: cell-based; details: human B1 receptor cells, Fluo-4 calcium assay, agonist LDBK at EC80, with washing step
T2 sequence (P46663 1-353): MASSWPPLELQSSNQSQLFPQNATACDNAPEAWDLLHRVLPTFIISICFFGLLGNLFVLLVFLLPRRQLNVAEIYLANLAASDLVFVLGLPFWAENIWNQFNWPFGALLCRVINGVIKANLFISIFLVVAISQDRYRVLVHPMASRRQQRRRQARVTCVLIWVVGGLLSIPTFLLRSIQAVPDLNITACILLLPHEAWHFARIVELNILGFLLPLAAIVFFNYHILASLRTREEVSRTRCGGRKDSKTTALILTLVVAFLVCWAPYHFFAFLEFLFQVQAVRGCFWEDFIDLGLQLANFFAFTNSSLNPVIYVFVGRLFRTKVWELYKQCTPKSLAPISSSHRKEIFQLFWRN
Method: as §1, §2, §3, §4, §5, §6, §7, §8

Nc1nc(N)c(/N=N/c2ccc(O)cc2)cc1O [Compound V]
pIC50 [1]: < 4.00
pIC50 [2]: 4.53

Nc1ccc(/N=N/c2ccccc2)c(N)n1 [Compound I]
pIC50 [1]: 4.50
pIC50 [2]: 4.49

Nc1ccc(/N=N/c2ccc(O)cc2)c(N)n1 [Compound III]
pIC50 [1]: 4.67
pIC50 [2]: 4.57

HOE-140 [reference compound]
IC50 without washing steps relative to IC50 with washing step [1]: approximately 15 fold

Nc1ccc(/N=N/c2ccccc2O)c(N)n1 [Compound IV]
pIC50 [1]: 4.96
pIC50 [2]: 5.08

Nc1nc(N)c(/N=N/c2ccccc2)cc1O [Compound II]
pIC50 [1]: 4.88
pIC50 [2]: 4.90

Reference: US20220317111A1, “BIOASSAY METHOD” (KASHIV BIOSCIENCES, LLC, priority 2021, published 2022)
